Source: patent US20250213744A1, “ANTIMICROBIAL HYDROGEL COMPOSITION” (priority 2022, published 2025)
Where “and” joins values, the source holds several entries; their conditions need not be identical. Identical values can stand only once. Entries after “also recorded” stand apart in the source; their conditions may differ.

Legend:
[1] = system: E. faecalis (JH2-2); assay: Modified Kirby-Bauer test, zone of inhibition; type: cell-based, Enterococcus faecalis; details: for Ratio of bacterial zone of inhibition following application of plasma jet to antimicrobial loaded gel over non-plasma activated gel: antimicrobial loaded PAA/PVA composite gel
Source text: (§1) The Ar-CAP jet shown in FIG. 14 consisted of an internal steel needle electrode (outer diameter=0.9 mm, inner diameter=0.6 mm, length 51 mm) sealed inside a quartz tube (inner diameter=1.5 mm, outer diameter=3 mm). Two external copper electrodes of length 4 mm 5.6 cm from electrode, spaced 5.4 cm apart and 6.6 cm from the bottom of the tube. Ar gas was kept at 1.0 standard litres per minute (SLPM) and generated at 10 kV at 23.5 kHz. Voltage and current waveforms were monitored using oscilloscope. The gap distance was 1.5 cm and the Ar-CAP jet was stationary unless otherwise stated. 31
(§2) Bacterial overnight was made as outlined, subcultures were made in fresh MH broth absorbance corrected to OD 0.5 (˜[…] CFU/mL). 100 μL was added to Muller-Hinton agar to and spread to create a bacterial lawn. Gel discs were placed in the centre of the plate and either treated with Ar-CAP or left untreated. Plates were incubated at 37° C. for 18 h, facing up to prevent the gel from moving. Zone of inhibition (ZOI) was measured and corrected to the diameter of the gel.
(§3) The Kirby-Bauer (KB) test is a standard test used to assess the susceptibility of bacteria to different antimicrobials by measuring the zone of bacterial growth inhibition (ZOI) due to the out diffusion of the antimicrobial agent from a sterile disc soaked in that compound. In this case, a modified form of the KB test was performed. Plasma activate antimicrobial loaded, composite hydrogels were compared to non-activated antimicrobial loaded, composite hydrogels and non-loaded, composite hydrogels with and without plasma activation.

[2] = system: P. aeruginosa (PAO1); assay: Modified Kirby-Bauer test, zone of inhibition; type: cell-based, Pseudomonas aeruginosa; details: for Ratio of bacterial zone of inhibition following application of plasma jet to antimicrobial loaded gel over non-plasma activated gel: antimicrobial loaded PAA/PVA composite gel
Source text: as §1, §2, §3

[3] = Passive leaching of antimicrobial from PAA composite gel, judged qualitatively from ZOI data; details: without CAP; judged from ZOI and ZOI ratios
Source text: The variation in bacterial susceptibility to the plasma jet applied to the unloaded gel is interesting and is thought to related to the varying susceptibility of different species to the RONS generated by the CAP. Sensitivity to different antimicrobials varied as a function of both the antimicrobial moiety and the bacterial species. In this case, P. aeruginosa is seen to be sensitive to Ag^+ passively leaching from the composite gel, while S. aureus and E. faecalis are not.
Relative passive leaching of different antimicrobials can be qualitatively assessed by looking at FIG. 5-7. The difficulty in cross comparison of the different antimicrobial susceptibility of the bacterial species to the various antimicrobials tested. The key comparison here is to look at the ratio of ZOI of the antimicrobial loaded composite gel (1st column in graphs below) to the zone of inhibition for the same loaded gel following application of the CAP jet 2nd column).

[4] = system: S. aureus (H560); assay: Modified Kirby-Bauer test, zone of inhibition; type: cell-based, Staphylococcus aureus; details: for Ratio of bacterial zone of inhibition following application of plasma jet to antimicrobial loaded gel over non-plasma activated gel: antimicrobial loaded PAA/PVA composite gel
Source text: as §1, §2, §3

[5] = Ninhydrin assay, gentamicin release from PAA/PVA composite hydrogel with and without Ar-CAP jet; type: physicochemical
Description: 0.1 g of the drug loaded PAA powder was mixed with dry PVA (5% (w/v)) to obtain a homogenous powder and then is dissolved at 95° C. for 1 h. 20 ml of the PAANaPA/PVA solution was then added to a […] diameter petri dish and spread evenly. The gels were placed into a −20° C. freezer until frozen and removed and defrosted at 25° C. this process was repeated twice more to enable cryo-crosslinking of the PVA.
The Ar-CAP jet shown in FIG. 14 consisted of an internal steel needle electrode (outer diameter=0.9 mm, inner diameter=0.6 mm, length 51 mm) sealed inside a quartz tube (inner diameter=1.5 mm, outer diameter=3 mm). […] Voltage and current waveforms were monitored using oscilloscope. […]
Aminoglycoside was made up in pH 7.4 assay buffer (39.1 mL 0.2 M sodium hydroxide solution was added to 50 mL 0.2 M monobasic potassium phosphate solution and made up to a final volume of 200 mL with DI H2O) to starting concentration of 1 mg/mL. […] 200 μL was aliquoted into a round bottom 96-well plate and the absorbance was read at 560 nm (Clariostar, Omega). […]
Gentamicin is an aminoglycoside antibiotic used both systemically and topically. […] Ninhydrin was used to quantify release of gentamicin both prior to CAP treatment (passive release) and following CAP treatment. […] The Ninhydrin assay was used to quantify release of gentamicin with (triggered release) and without CAP treatment (passive release).

[6] = system: clinical strains of S. aureus; details: many clinical strains of S. aureus; cited from earlier work
[7] = two secondary amine groups; net positive charge at pH 7; cited from earlier work
[8] = system: clinical strains of P. aeruginosa; details: many clinical strains of P. aeruginosa; cited from earlier work

Compound: O=[N+]([O-])[O-].[Ag+] [Silver, Silver Nitrate]
- sensitivity to antimicrobial passively leaching from the composite gel ([1]; E. faecalis, no CAP): are not
- Ratio of bacterial zone of inhibition following application of plasma jet to antimicrobial loaded gel over non-plasma activated gel ([1]; E. faecalis): 6
- Ratio of bacterial zone of inhibition following application of plasma jet to antimicrobial loaded gel over non-plasma activated gel [2]: 1.5
- sensitivity to antimicrobial passively leaching from the composite gel ([2]; no CAP): sensitive
- passive release / leaching from the PAA composite gel (qualitative) [3]: much greater degree of passive out-diffusion
- Ratio of bacterial zone of inhibition following application of plasma jet to antimicrobial loaded gel over non-plasma activated gel [4]: 7
- sensitivity to antimicrobial passively leaching from the composite gel ([4]; no CAP): are not

Compound: Cetrimide
- Ratio of bacterial zone of inhibition following application of plasma jet to antimicrobial loaded gel over non-plasma activated gel ([1]; E. faecalis): 1.3
- sensitivity of E. faecalis compared with P. aeruginosa and S. aureus ([1]; loaded composite gel): less sensitive
- Ratio of bacterial zone of inhibition following application of plasma jet to antimicrobial loaded gel over non-plasma activated gel [2]: 2.7
- passive release / leaching from the PAA composite gel (qualitative) [3]: much greater degree of passive out-diffusion
- Ratio of bacterial zone of inhibition following application of plasma jet to antimicrobial loaded gel over non-plasma activated gel [4]: 1.8

Compound: Polymyxin B
- Ratio of bacterial zone of inhibition following application of plasma jet to antimicrobial loaded gel over non-plasma activated gel ([1]; E. faecalis): >30
- Ratio of bacterial zone of inhibition following application of plasma jet to antimicrobial loaded gel over non-plasma activated gel [2]: 13
- passive release / leaching from the PAA composite gel (qualitative) [3]: relatively no passive release; also recorded: little passive leaching
- Ratio of bacterial zone of inhibition following application of plasma jet to antimicrobial loaded gel over non-plasma activated gel [4]: 34

Compound: gentamicin
- Ratio of bacterial zone of inhibition following application of plasma jet to antimicrobial loaded gel over non-plasma activated gel ([1]; E. faecalis): >10
- gentamicin released from gel into the surrounding PBS (triggered release) ([5]; after two minutes treatment with Ar CAP jet): 61 mg/mL
- gentamicin passively released from gel ([5]; without CAP treatment): 1.1 mg/mL
- Minimal Inhibitory Concentration (MIC) [6]: 2000 to 4000 µg/mL
- Ratio of bacterial zone of inhibition following application of plasma jet to antimicrobial loaded gel over non-plasma activated gel [2]: 3.6
- pka of secondary amine groups [7]: 8.8 and 9.9
- passive release / leaching from the PAA composite gel (qualitative) [3]: little passive leaching
- Ratio of bacterial zone of inhibition following application of plasma jet to antimicrobial loaded gel over non-plasma activated gel [4]: 8.2
- Minimal Inhibitory Concentration (MIC) [8]: 2000 to 4000 µg/mL
